# Measurements published in patent publication US10202360B2 (CELGENE QUANTICEL RESEARCH, INC., priority 2016, dated 2019).
# Target: CREBBP (Homo sapiens (Human), UniProt Q92793)
# Assay: In vitro enzyme inhibition assay - CREBBP inhibition (AlphaScreen, biotinylated H4-tetraacetyl peptide)
# Format: binding
# Settings: Table 28; AlphaScreen, H4-tetraacetyl peptide
# Outline: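 Displacement of 20 nM biotinylated tetraacetyl-H4 peptide from 50 nM E. coli-expressed His-CREBBP, measured by AlphaScreen after bead equilibration for 2 h.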
# Chain of CREBBP (Q92793 1081-1197): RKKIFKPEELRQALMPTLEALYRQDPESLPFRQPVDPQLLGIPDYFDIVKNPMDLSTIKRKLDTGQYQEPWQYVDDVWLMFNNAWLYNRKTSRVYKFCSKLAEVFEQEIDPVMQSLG
smiles,measurement,value
"CCCS(=O)(=O)Nc1nc(Oc2c(C)cccc2F)nc(-c2ccc(=O)n(C)c2)n1 [Example 177, Propane-1-sulfonic acid [4-(2-fluoro-6-methyl-phenoxy)-6-(1-methyl-6-oxo-1,6-dihdyro-pyridin-3-yl)-[1,3,5]triazin-2-yl]-amide]",IC50,< 500 nM
"CCCCS(=O)(=O)Nc1nc(Oc2c(C)cccc2F)nc(-c2ccc(=O)n(C)c2)n1 [Example 178, Butane-1-sulfonic acid [4-(2-fluoro-6-methyl-phenoxy)-6-(1-methyl-6-oxo-1,6-dihydro-pyridin-3-yl)-[1,3,5]triazin-2-yl]-amide]",IC50,< 500 nM
"CCS(=O)(=O)Nc1nc(Oc2c(C)cccc2Cl)nc(-c2ccc(=O)n(C)c2)n1 [Example 179, Ethanesulfonic acid [4-(2-chloro-6-methyl-phenxoy)-6-(1-methyl-6-oxo-1,6-dihydro-pyridin-3-yl)-[1,3,5]triazin-2-yl]-amide]",IC50,< 500 nM
"Cc1cccc(Cl)c1Oc1nc(NS(=O)(=O)C(C)C)nc(-c2ccc(=O)n(C)c2)n1 [Example 180, Propane-2-sulfonic acid [4-(2-chloro-6-methyl-phenoxy)-6-(1-methyl-6-oxo-1,6-dihydro-pyridin-3-yl)-[1,3,5]triazin-2-yl]-amide]",IC50,< 500 nM
"CCCS(=O)(=O)Nc1nc(Oc2c(F)cccc2Cl)nc(-c2ccc(=O)n(C)c2)n1 [Example 181, Propane-1-sulfonic acid [4-(2-chloro-6-fluoro-phenoxy)-6-(1-methyl-6-oxo-1,6-dihydro-pyridin-3-yl)-[1,3,5]triazin-2-yl]-amide]",IC50,< 500 nM
"CCCCS(=O)(=O)Nc1nc(Oc2c(F)cccc2Cl)nc(-c2ccc(=O)n(C)c2)n1 [Example 182, Butane-1-sulfonic acid [4-(2-chloro-6-fluoro-phenoxy)-6-(1-methyl-6-oxo-1,6-dihydro-pyridin-3-yl)-[1,3,5]triazin-2-yl]-amide]",IC50,< 500 nM
"Cc1cccc(F)c1Oc1nc(NS(=O)(=O)CC(C)C)nc(-c2cc(C)c(=O)n(C)c2)n1 [Example 183, 2-Methyl-propane-1-sulfonic acid [4-(1,5-dimethyl-6-oxo-1,6-dihydro-pyridin-3-yl)-6-(2-fluoro-6-methyl-phenoxy)-[1,3,5]triazin-2-yl]-amide]",IC50,< 500 nM
"Cc1cccc(F)c1Oc1nc(NS(=O)(=O)C2CCCC2)nc(-c2cc(C)c(=O)n(C)c2)n1 [Example 184, Cyclopentanesulfonic acid [4-(1,5-dimethyl-6-oxo-1,6-dihydro-pyridin-3-yl)-6-(2-fluoro-6-methyl-phenoxy)-[1,3,5]triazin-2-yl]-amide]",IC50,< 500 nM
"CCCCCS(=O)(=O)Nc1nc(Oc2c(C)cccc2F)nc(-c2cc(C)c(=O)n(C)c2)n1 [Example 185, Pentane-1-sulfonic acid [4-(1,5-dimethyl-6-oxo-1,6-dihydro-pyridin-3-yl)-6-(2-fluoro-6-methyl-phenoxy)-[1,3,5]triazin-2-yl]-amide]",IC50,< 500 nM
"Cc1cccc(F)c1Oc1nc(NS(=O)(=O)CCC(C)C)nc(-c2cc(C)c(=O)n(C)c2)n1 [Example 186, 3-Methyl-butane-1-sulfonic acid [4-(1,5-dimethyl-6-oxo-1,6-dihydro-pyridin-3-yl)-6-(2-fluoro-6-methyl-phenoxy)-[1,3,5]triazin-2-yl]-amide]",IC50,< 500 nM
"CCCCS(=O)(=O)Nc1nc(Oc2c(C)cccc2Cl)nc(-c2cc(C)c(=O)n(C)c2)n1 [Example 188, Butane-1-sulfonic acid [4-(2-chloro-6-methyl-phenoxy)-6-(1,5-dimethyl-6-oxo-1,6-dihydro-pyridin-3-yl)-[1,3,5]triazin-2-yl]-amide]",IC50,< 500 nM
"CCCCS(=O)(=O)Nc1nc(Oc2c(F)cccc2F)nc(-c2cc(C)c(=O)n(C)c2)n1 [Example 189, Butane-1-sulfonic acid [4-(2,6-difluoro-phenoxy)-6-(1,5-dimethyl-6-oxo-1,6-dihydro-pyridin-3-yl)-[1,3,5]triazin-2-yl]-amide]",IC50,< 500 nM
"CCCCS(=O)(=O)Nc1nc(Oc2c(F)cccc2Cl)nc(-c2cc(C)c(=O)n(C)c2)n1 [Example 190, Butane-1-sulfonic acid [4-(2-chloro-6-fluoro-phenoxy)-6-(1,5-dimethyl-6-oxo-1,6-dihydro-pyridin-3-yl)-[1,3,5]triazin-2-yl]-amide]",IC50,< 500 nM
"CCS(=O)(=O)Nc1cc(-c2cc(C)c(=O)n(C)c2)nc(-c2ccccc2)n1 [Example 191, Ethanesulfonic acid [6-(1,5-dimethyl-6-oxo-1,6-dihydro-pyridin-3-yl)-2-phenyl-pyrimidin-4-yl]-amide]",IC50,500 to 5000 nM
"CCS(=O)(=O)Nc1cc(-c2cc(C)c(=O)n(C)c2)nc(-c2ccccc2C)n1 [Example 192, Ethanesulfonic acid [6-(1,5-dimethyl-6-oxo-1,6-dihydro-pyridin-3-yl)-2-o-tolyl-pyrimidin-4-yl]-amide]",IC50,< 500 nM
"CCS(=O)(=O)Nc1cc(-c2cc(C)c(=O)n(C)c2)nc(-c2ccccc2OC)n1 [Example 193, Ethanesulfonic acid [6-(1,5-dimethyl-6-oxo-1,6-dihydro-pyridin-3-yl)-2-(2-methoxy-phenyl)-pyrimidin-4-yl]-amide]",IC50,< 500 nM
"CCS(=O)(=O)Nc1cc(-c2ccc(=O)n(C)c2)nc(-c2ccc(C)cc2OC)n1 [Example 194, Ethanesulfonic acid [2-(2-methoxy-4-methyl-phenyl)-6-(1-methyl-6-oxo-1,6-dihydro-pyridin-3-yl)-pyrimidin-4-yl]-amide]",IC50,500 to 5000 nM
"CCS(=O)(=O)Nc1cc(-c2ccc(=O)n(C)c2)nc(-c2cc(C)ccc2OC)n1 [Example 195, Ethanesulfonic acid [2-(2-methoxy-5-methyl-phenyl)-6-(1-methyl-6-oxo-1,6-dihydro-pyridin-3-yl)-pyrimidin-4-yl]-amide]",IC50,500 to 5000 nM
"CCCS(=O)(=O)Nc1cc(-c2ccc(=O)n(C)c2)nc(-c2ccccc2OC)n1 [Example 196, Propane-1-sulfonic acid [2-(2-methoxy-phenyl)-6-(1-methyl-6-oxo-1,6-dihydro-pyridin-3-yl)-pyrimidin-4-yl]-amide]",IC50,500 to 5000 nM
"CCCCS(=O)(=O)Nc1cc(-c2ccc(=O)n(C)c2)nc(-c2ccccc2OC)n1 [Example 197, Butane-1-sulfonic acid [2-(2-methoxy-phenyl)-6-(1-methyl-6-oxo-1,6-dihydro-pyridin-3-yl)-pyrimidin-4-yl]-amide]",IC50,< 500 nM
"CCS(=O)(=O)Nc1cc(-c2ccc(=O)n(C)c2)nc(-c2ccccc2C#N)n1 [Example 198, Ethanesulfonic acid [2-(2-cyano-phenyl)-6-(1-methyl-6-oxo-1,6-dihydro-pyridin-3-yl)-pyrimidin-4-yl]-amide]",IC50,< 500 nM
"CCS(=O)(=O)Nc1cc(-c2ccc(=O)n(C)c2)nc(-c2ccccc2OC)n1 [Example 199, Ethanesulfonic acid [2-(2-methoxy-phenyl)-6-(1-methyl-6-oxo-1,6-dihydro-pyridin-3-yl)-pyrimidin-4-yl]-amide]",IC50,500 to 5000 nM
"CCS(=O)(=O)Nc1nc(OC(C)C)nc(-c2ccc(=O)n(C)c2)n1 [Example 200, Ethanesulfonic acid [4-isopropoxy-6-(1-methyl-6-oxo-1,6-dihydro-pyridin-3-yl)-[1,3,5]triazin-2-yl]-amide]",IC50,500 to 5000 nM
"CCCS(=O)(=O)Nc1nc(OC(C)C)nc(-c2ccc(=O)n(C)c2)n1 [Example 201, Propane-1-sulfonic acid [4-isopropoxy-6-(1-methyl-6-oxo-1,6-dihydro-pyridin-3-yl)-[1,3,5]triazin-2-yl]-amide]",IC50,500 to 5000 nM
